# Experimental data: patent US20070208077A1, “Adiponectin Enhancer” (priority 2004, published 2007)
# Where “and” joins values, the source holds several entries; their conditions need not be identical. Identical values can stand only once.
# Key:
# 3T3-L1 cells = assay: Effect of inducing size reduction of adipocytes in pre-differentiated 3T3-L1 cell cultures; format: cell-based, mouse; settings: sesamin 50 μM, 3T3-L1 cells pre-differentiated to adipocytes, 8 days of culturing, vs control
# adiponectin mRNA = assay: Cellular adiponectin mRNA level by quantitative RT-PCR in 3T3-L1 adipocytes; format: cell-based, mouse; settings: sesamin 50 μM, 8 days of culturing
# Experimental: (§1) Mouse-derived 3T3-L1 cells were treated for 42 hours in culturing solution containing insulin, dexamethasone and isobutylxanthine, for differentiation to adipocytes. The culture solution was removed and immediately combined with sesamin-free culturing solution (control) or culturing solution containing sesamin at a final concentration of 50 μM (sesamin), and after culturing for 48 hours, the culture solution was exchanged and culturing was continued for 6 days. The cell culturing was carried out in an incubator controlled to 5% CO2 gas-95% air at a temperature of 37° C. The cellular mRNA levels for adiponectin and TNFα were measured by quantitative RT-PCR using CYBR-Green (BMC Biotechnol. 3, 18, 2003).
# TNFα mRNA = assay: Cellular TNFα mRNA level by quantitative RT-PCR in 3T3-L1 adipocytes; format: cell-based, mouse; settings: sesamin 50 μM, 8 days of culturing, vs control
# Experimental: as §1
# adiponectin = assay: Adiponectin production by 3T3-L1 adipocytes, ELISA of culture solution; format: cell-based, mouse; settings: sesamin 50 μM, vs control
# Experimental: as §1, with “The” for “The cellular mRNA levels for”, “concentrations in the culture solutions” for “and TNFα”, “Enzyme-Linked ImmunoSorbent Assay (Mouse/Rat Adiponectin ELISA Kit, Otsuka Pharmaceutical).” for “quantitative RT-PCR using CYBR-Green (BMC Biotechnol. 3, 18, 2003).”
# Zucker fatty rats = assay: Plasma adiponectin concentration of Zucker fatty rats, ELISA; format: in vivo, rat; settings: male Zucker fatty rats, 0.1% sesamin in AIN-93G feed for four weeks, after overnight starving; control feed 6.06 ± 0.48
# Experimental: The rats were divided into two groups with five rats per group, with the first group being freely given AIN-93G (growth stage feed, product of Nihon Crea) as the control group and the second group being freely given feed comprising 0.1% sesamin added to AIN-93G, for a four week period. After four weeks, blood was sampled after overnight starving, and the plasma was separated. The plasma adiponectin concentrations were assayed using an Enzyme-Linked ImmunoSorbent Assay (Mouse/Rat Adiponectin ELISA Kit, product of Otsuka Pharmaceutical).
smiles,measurement,setting,value
c1cc2c(cc1[C@H]1OC[C@H]3[C@@H]1CO[C@@H]3c1ccc3c(c1)OCO3)OCO2 [sesamin],influence on adipocyte size,3T3-L1 cells,numerous small adipocytes
same,"adiponectin mRNA levels in the adipocytes, increase with respect to the control group",adiponectin mRNA,7 fold
same,TNFα mRNA levels in the adipocytes,TNFα mRNA,decreased
same,increase of adiponectin concentration in the cell cultured medium,adiponectin,1.6 fold
same,Plasma adiponectin,Zucker fatty rats,6.53 µg/mL and 6.53 ± 0.54 µg/mL
